# Assay results: patent US20220088016A1, “CANCER TREATMENT USING MULTI-TARGETED KINASE INHIBITOR IN COMBINATION OF PROTEIN KINASE BIOMARKERS” (ZHEJIANG CROWNMAB BIOTECH CO. LTD., priority 2019, published 2022)
# Columns and labels:
# Assay in all cases: Kinase profiling
# Type in all cases: binding
# Details in all cases: read-out: % Ctrl @ 1000 nM
# BMX = BMX (Homo sapiens, UniProt P51813)
# CAMK4 = CAMK4 (Homo sapiens, UniProt Q16566)
# CAMKK2 = CAMKK2 (Homo sapiens, UniProt Q96RR4)
# CDK5 = CDK5 (Homo sapiens, UniProt Q00535)
# CDK9 = CDK9 (Homo sapiens, UniProt P50750)
# DMPK = DMPK (Homo sapiens, UniProt Q09013)
# DYRK1A = DYRK1A (Homo sapiens, UniProt Q13627)
# EGFR (G719S) = EGFR (G719S) (Homo sapiens, UniProt P00533, G719S)
# ERBB4 = ERBB4 (Homo sapiens, UniProt Q15303)
# ERK1 = ERK1 (Homo sapiens, UniProt P27361)
# ERK4 = ERK4 (Homo sapiens, UniProt P31152)
# ERK8 = ERK8 (Homo sapiens, UniProt Q8TD08)
# FLT3 = FLT3 (Homo sapiens, UniProt P36888)
# GSK3A = GSK3A (Homo sapiens, UniProt P49840)
# [1] = target: JAK1 (JH1domain-catalytic) (Homo sapiens, UniProt P23458)
# MAP3K4 = MAP3K4 (Homo sapiens, UniProt Q9Y6R4)
# MARK3 = MARK3 (Homo sapiens, UniProt P27448)
# MET (M1250T) = target: T1, MET (M1250T) (Homo sapiens, UniProt P08581, M1250T)
# T1 construct: T7 phage fusion (stated for most kinases of the panel only); made in house; host or cells: T7 phage in E. coli (BL21-derived) or HEK-293 cells
# MLK3 = target: T2, MLK3 (Homo sapiens, UniProt Q16584)
# T2 construct: T7 phage fusion (stated for most kinases of the panel only); made in house; host or cells: T7 phage in E. coli (BL21-derived) or HEK-293 cells
# MTOR = target: T3, MTOR (Homo sapiens, UniProt P42345)
# T3 construct: T7 phage fusion (said for most assays); made in house
# MUSK = target: T4, MUSK (Homo sapiens, UniProt O15146)
# T4 construct: T7 phage fusion (said for most assays); made in house
# PAK1 = PAK1 (Homo sapiens, UniProt Q13153)
# PAK2 = PAK2 (Homo sapiens, UniProt Q13177)
# PAK4 = PAK4 (Homo sapiens, UniProt O96013)
# PCTK1 = PCTK1 (Homo sapiens, UniProt Q00536)
# PDGFRA = PDGFRA (Homo sapiens, UniProt P16234)
# PIK3CA (E545A) = PIK3CA (E545A) (Homo sapiens, UniProt P42336, E545A)
# PIM1 = PIM1 (Homo sapiens, UniProt P11309)
# PRKG1 = PRKG1 (Homo sapiens, UniProt Q13976)
# RET (M918T) = RET (M918T) (Homo sapiens, UniProt P07949, M918T)
# [2] = target: RSK2 (Kin.Dom.2-C-terminal) (Homo sapiens, UniProt P51812)
# TBK1 = TBK1 (Homo sapiens, UniProt Q9UHD2)
# TGFBR2 = TGFBR2 (Homo sapiens, UniProt P37173)
# TRKC = TRKC (Homo sapiens, UniProt Q16288)
# TSSK3 = TSSK3 (Homo sapiens, UniProt Q96PN8)
# [3] = target: TYK2 (JH2domain-pseudokinase) (Homo sapiens, UniProt P29597)
# WEE1 = WEE1 (Homo sapiens, UniProt P30291)
# WNK2 = WNK2 (Homo sapiens, UniProt Q9Y3S1)
# WNK3 = WNK3 (Homo sapiens, UniProt Q9BYP7)
# Chain of WNK3 (Q9BYP7 whole entry): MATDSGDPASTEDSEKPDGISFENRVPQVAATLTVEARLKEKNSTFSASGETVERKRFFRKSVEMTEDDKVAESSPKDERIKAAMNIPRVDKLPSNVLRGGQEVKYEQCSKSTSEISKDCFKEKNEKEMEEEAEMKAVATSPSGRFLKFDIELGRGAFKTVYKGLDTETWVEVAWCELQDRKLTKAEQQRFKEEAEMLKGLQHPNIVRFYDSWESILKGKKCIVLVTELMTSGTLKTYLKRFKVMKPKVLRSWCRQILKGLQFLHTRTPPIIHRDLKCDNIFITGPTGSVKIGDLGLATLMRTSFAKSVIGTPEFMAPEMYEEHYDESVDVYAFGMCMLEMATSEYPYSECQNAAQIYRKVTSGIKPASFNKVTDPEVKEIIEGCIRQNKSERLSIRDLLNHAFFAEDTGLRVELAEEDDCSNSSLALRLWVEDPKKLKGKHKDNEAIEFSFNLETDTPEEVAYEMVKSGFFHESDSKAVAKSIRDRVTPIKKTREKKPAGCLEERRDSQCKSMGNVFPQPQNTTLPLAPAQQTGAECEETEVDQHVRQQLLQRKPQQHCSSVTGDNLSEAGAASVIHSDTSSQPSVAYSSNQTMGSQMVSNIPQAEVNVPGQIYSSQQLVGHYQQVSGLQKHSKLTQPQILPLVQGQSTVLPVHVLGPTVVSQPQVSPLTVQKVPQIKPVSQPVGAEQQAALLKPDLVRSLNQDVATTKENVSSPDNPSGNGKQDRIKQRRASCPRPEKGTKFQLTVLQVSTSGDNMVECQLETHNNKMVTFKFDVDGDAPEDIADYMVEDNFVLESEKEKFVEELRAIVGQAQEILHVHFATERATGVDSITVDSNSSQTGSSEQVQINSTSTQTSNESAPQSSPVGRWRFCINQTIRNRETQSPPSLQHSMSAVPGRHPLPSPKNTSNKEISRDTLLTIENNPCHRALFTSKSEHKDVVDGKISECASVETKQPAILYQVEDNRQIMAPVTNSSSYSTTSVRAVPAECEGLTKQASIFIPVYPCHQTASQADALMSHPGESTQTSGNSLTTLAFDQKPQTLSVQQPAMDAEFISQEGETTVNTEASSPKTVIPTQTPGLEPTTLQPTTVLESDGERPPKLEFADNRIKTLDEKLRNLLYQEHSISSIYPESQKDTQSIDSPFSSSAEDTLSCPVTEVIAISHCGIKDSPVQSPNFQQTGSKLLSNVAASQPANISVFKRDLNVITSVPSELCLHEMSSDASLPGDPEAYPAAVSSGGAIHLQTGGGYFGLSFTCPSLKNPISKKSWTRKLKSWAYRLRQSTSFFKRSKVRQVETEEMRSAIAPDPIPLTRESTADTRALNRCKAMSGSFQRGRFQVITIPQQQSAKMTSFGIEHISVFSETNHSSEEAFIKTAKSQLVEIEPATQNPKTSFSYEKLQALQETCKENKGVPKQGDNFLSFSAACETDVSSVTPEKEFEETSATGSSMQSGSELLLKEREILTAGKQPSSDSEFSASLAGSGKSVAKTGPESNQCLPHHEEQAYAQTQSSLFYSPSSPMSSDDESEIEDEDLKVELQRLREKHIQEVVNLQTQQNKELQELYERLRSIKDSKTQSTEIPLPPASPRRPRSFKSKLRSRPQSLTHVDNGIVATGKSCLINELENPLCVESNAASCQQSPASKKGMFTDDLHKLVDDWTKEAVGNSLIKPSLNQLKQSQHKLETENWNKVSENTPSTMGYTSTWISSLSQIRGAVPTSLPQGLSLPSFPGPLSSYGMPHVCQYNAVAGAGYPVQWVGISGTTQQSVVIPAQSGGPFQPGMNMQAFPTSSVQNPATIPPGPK
# Chain of RET (M918T) (P07949 29-1114 M918T): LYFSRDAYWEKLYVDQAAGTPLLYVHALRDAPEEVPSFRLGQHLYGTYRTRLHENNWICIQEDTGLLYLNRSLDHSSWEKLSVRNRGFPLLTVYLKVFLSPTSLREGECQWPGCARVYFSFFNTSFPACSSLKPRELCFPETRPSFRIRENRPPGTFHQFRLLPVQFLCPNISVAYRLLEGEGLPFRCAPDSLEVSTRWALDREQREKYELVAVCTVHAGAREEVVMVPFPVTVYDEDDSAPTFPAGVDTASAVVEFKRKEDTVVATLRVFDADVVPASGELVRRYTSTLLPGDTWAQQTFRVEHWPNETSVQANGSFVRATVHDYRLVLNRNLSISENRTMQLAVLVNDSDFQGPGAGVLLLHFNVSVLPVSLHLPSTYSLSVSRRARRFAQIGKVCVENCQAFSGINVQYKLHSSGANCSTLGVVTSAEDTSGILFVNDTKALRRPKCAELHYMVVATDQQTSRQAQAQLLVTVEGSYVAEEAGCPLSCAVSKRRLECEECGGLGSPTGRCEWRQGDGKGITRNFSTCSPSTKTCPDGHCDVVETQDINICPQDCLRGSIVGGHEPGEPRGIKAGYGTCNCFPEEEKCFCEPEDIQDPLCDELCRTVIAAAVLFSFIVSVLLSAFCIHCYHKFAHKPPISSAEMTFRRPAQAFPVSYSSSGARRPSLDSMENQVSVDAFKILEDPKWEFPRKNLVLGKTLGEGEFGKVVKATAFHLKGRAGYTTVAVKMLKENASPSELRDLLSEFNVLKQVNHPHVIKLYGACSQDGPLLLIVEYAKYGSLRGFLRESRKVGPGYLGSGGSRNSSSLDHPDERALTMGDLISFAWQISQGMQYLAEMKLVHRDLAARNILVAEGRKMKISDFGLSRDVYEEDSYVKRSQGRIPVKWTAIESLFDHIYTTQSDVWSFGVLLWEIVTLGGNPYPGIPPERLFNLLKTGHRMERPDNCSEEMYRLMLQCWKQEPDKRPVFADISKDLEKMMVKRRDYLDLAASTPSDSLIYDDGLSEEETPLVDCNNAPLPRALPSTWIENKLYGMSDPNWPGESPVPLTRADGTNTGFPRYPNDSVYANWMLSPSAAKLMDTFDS
# Chain of BMX (P51813 whole entry): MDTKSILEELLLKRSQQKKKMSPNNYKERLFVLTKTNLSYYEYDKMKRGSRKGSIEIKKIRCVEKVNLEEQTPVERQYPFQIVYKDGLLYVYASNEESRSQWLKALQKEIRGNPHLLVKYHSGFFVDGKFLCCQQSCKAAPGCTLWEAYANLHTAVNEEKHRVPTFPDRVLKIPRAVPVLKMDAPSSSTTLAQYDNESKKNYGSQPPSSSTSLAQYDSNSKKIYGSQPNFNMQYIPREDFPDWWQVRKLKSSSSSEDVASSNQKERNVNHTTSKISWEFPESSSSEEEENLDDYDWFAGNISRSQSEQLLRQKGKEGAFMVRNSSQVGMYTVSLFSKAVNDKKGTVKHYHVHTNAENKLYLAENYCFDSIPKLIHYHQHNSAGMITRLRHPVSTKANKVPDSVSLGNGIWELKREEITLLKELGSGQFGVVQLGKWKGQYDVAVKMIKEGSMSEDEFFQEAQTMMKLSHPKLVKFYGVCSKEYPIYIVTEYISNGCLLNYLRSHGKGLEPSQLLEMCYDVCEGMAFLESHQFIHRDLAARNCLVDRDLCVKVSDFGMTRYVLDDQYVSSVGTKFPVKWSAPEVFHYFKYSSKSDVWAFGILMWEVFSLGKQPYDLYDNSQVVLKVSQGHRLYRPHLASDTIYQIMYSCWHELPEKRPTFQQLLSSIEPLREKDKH
# Chain of FLT3 (P36888 27-993): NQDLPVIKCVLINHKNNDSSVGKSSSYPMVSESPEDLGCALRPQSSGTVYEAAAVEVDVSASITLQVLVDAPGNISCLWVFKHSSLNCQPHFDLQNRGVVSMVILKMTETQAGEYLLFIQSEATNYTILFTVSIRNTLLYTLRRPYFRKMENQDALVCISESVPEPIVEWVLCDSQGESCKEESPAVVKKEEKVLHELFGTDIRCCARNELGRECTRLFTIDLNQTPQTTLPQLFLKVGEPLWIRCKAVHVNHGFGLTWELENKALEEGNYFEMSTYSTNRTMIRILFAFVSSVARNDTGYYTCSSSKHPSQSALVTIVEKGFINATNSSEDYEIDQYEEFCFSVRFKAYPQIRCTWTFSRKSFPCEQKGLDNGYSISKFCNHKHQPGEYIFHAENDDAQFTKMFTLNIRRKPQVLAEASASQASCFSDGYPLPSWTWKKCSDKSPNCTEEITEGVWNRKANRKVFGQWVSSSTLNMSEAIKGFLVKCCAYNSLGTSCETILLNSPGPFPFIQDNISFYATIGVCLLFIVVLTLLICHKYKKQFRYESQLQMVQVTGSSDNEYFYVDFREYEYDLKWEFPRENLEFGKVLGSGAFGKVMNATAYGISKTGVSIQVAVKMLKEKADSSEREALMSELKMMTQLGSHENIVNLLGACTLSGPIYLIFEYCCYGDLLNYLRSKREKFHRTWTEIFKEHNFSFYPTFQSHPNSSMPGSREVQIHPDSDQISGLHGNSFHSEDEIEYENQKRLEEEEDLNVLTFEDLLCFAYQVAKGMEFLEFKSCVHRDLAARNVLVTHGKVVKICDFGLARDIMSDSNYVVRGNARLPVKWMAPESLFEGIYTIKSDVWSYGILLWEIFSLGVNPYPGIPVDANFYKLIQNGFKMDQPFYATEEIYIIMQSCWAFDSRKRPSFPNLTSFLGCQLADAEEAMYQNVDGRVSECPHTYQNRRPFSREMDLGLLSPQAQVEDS
# Chain of TYK2 (JH2domain-pseudokinase) (P29597 589-875 limits assumed): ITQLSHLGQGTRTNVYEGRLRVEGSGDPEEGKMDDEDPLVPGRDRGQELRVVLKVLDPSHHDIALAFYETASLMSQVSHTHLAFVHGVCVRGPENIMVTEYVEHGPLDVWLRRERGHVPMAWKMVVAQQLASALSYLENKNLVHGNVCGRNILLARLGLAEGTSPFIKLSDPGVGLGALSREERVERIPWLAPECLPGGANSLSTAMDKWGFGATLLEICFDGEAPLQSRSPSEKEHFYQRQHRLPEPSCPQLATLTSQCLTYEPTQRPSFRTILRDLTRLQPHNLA
# Chain of TSSK3 (Q96PN8 whole entry): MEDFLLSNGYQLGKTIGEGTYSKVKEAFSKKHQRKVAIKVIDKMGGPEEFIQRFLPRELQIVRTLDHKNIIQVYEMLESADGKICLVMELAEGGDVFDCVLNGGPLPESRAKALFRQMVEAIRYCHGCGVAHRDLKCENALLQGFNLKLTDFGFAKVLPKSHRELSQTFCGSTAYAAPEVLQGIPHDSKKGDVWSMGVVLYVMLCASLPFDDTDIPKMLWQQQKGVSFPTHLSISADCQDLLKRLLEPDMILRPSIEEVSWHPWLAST
structure (smiles),measurement,setting,value
Cc1cc(Oc2cc(NC(=O)C3CC3)ncn2)ccc1NC(=O)Nc1ccc(Cl)c(C(F)(F)F)c1 [CBT-102],remaining activity at 1 µM,BMX,90%
same,remaining activity at 1 µM,CAMK4,100%
same,remaining activity at 1 µM,CAMKK2,92%
same,remaining activity at 1 µM,CDK5,92%
same,remaining activity at 1 µM,CDK9,46%
same,remaining activity at 1 µM,DMPK,93%
same,remaining activity at 1 µM,DYRK1A,97%
same,remaining activity at 1 µM,EGFR (G719S),84%
same,remaining activity at 1 µM,ERBB4,100%
same,remaining activity at 1 µM,ERK1,91%
same,remaining activity at 1 µM,ERK4,91%
same,remaining activity at 1 µM,ERK8,0.6%
same,remaining activity at 1 µM,FLT3,2.3%
same,remaining activity at 1 µM,GSK3A,18%
same,remaining activity at 1 µM,[1],78%
same,remaining activity at 1 µM,MAP3K4,100%
same,remaining activity at 1 µM,MARK3,100%
same,remaining activity at 1 µM,MET (M1250T),84%
same,remaining activity at 1 µM,MLK3,92%
same,remaining activity at 1 µM,MTOR,94%
same,remaining activity at 1 µM,MUSK,47%
same,remaining activity at 1 µM,PAK1,100%
same,remaining activity at 1 µM,PAK2,94%
same,remaining activity at 1 µM,PAK4,100%
same,remaining activity at 1 µM,PCTK1,88%
same,remaining activity at 1 µM,PDGFRA,2.1%
same,remaining activity at 1 µM,PIK3CA (E545A),100%
same,remaining activity at 1 µM,PIM1,95%
same,remaining activity at 1 µM,PRKG1,100%
same,remaining activity at 1 µM,RET (M918T),0.1%
same,remaining activity at 1 µM,[2],83%
same,remaining activity at 1 µM,TBK1,98%
same,remaining activity at 1 µM,TGFBR2,56%
same,remaining activity at 1 µM,TRKC,37%
same,remaining activity at 1 µM,TSSK3,100%
same,remaining activity at 1 µM,[3],100%
same,remaining activity at 1 µM,WEE1,92%
same,remaining activity at 1 µM,WNK2,100%
same,remaining activity at 1 µM,WNK3,100%
